A word on the IC50: it is the concentration that gives 50% inhibition. For orientation: inhibition means the drop in the measured response relative to a control, in per cent.

Structures are written as SMILES.

Results on 5 compounds are retold here after article PMC10986609, “Identification of fungal natural products with potent inhibition in Toxoplasma gondii” (Microbiology Spectrum, 2024).

The subject of data set [1] is Toxoplasma gondii tachyzoites (RH88). Description: microbe, parasite or virus in culture. The following applies: Toxoplasma gondii, 48 h, read-out: TgRH88 IC50 (mean ± SEM). The protocol: (§1) For the initial fixed concentration screening and IC50 determination in T. gondii, we utilized a luciferase expressing RH88 strain to quantify the number of live, actively replicating parasites. To construct this strain, the Fluc and DHFR selection markers had been integrated into the UPRT locus through CRISPR/Cas9, rendering the strain pyrimethamine-resistant ([6]). Screening was performed using a pure compound library provided by the University of Oklahoma Natural Products Discovery Group, containing 683 compounds derived primarily from fungal secondary metabolites. For purposes of testing, HFFs were grown in 96-well microtiter plates in preparation. The media we used to grow cells was referred to a D10 media that was composed of Dulbecco's Modified Eagle Medium (Thermo Fisher; Cat # 11995073), 10% Fetal Bovine Serum (Sigma-Aldrich; Cat # 12306C), 1 × non-essential amino acids (100 ×; Thermo Fisher; Cat # 11140050), HEPES buffer (1M; Fisher Scientific; Cat # SH3023701) at 0.4M, and 10 mg/mL of gentamicin (Fisher Scientific; Cat # 15710072). Compounds were then diluted to 10 µM in 100 µL of fresh D10 media. Each plate utilized artemisinin and DMSO vehicle controls. To each well, 2,500 parasites per 100 µL of D10 media were added. Three technical replicates were then performed. After 48 hours, 160 µL of the D10 media was removed, and plates were subjected to freezing then thawing. Following this, 10 µL of the passive lysis buffer (Promega; Cat# E1910) was added and incubated at room temperature for 15 min. Finally, 100 µL of luciferase assay reagent (Promega; Cat# E1501) was added to each well, and luminescence was measured using a PHERAstar FSX plate reader (BMG Labtech, Germany).
(§2) For IC50 and cytotoxicity determination, we used 384 plates with confluent HFF cells. Compounds were serially diluted 3-fold with a starting concentration of 20 µM. Samples were further diluted by adding an equal volume of media containing 700 parasites. DMSO and […] of KAE609 were used as negative and positive controls, respectively. Assays were performed with a total of three technical replicates and two biological replicates. After incubation for 48 hours, 50 µL of media was removed, and plates were subjected to freezing and thawing. Following this, 10 µL of passive lysis buffer was added and plates were incubated for 15 min at room temperature. Finally, 30 µL of luciferase reagent was added, and the luminescence was measured immediately using a PHERAstar FSX. In parallel, cytotoxicity dose response was performed in the same fashion without the addition of parasites. Cell counting kit-8 reagent (GlpBio; Cat # GK10001) was added at a 1:10 dilution and incubated at 37°C, 5% CO2 for 1 hour. The absorbance was then measured at 450 nm using a PHERAstar FSX. The data management system CDD vault was used for curve fitting and IC50 determination.

The test system is the same in data set [2]. Briefly: T. gondii fixed concentration screen at 5 µM (luciferase). The class given is cell-based. The following applies: 48 hours. As for the experimental part: as §1, with “To each well, 2,500 parasites per 100 µL of D10 media were added. Three technical replicates were then performed. After 48 hours, 160 µL of the D10 media was removed, and plates were subjected to freezing then thawing. Following this, 10 µL of the passive lysis buffer (Promega; Cat# E1910) was added and incubated at room temperature for 15 min.” left out

Data set [3] deals with human foreskin fibroblasts (HFFs). Description: HFF cytotoxicity dose response (cell counting kit-8). The settings on record: for IC50: Homo sapiens, Fibroblast, 48 h, read-out: HFF IC50 (mean ± SEM). As for the experimental part:
as §2, with “Samples” for “For IC50 and cytotoxicity determination, we used 384 plates with confluent HFF cells. Compounds were serially diluted 3-fold with a starting concentration of 20 µM. Samples”

In data set [4] the test system is Plasmodium falciparum (Dd2). The following applies: mean of duplicate or triplicate experiments; read-out: PfDd2 IC50; cited from earlier work.
Another data set can be described thus: in vitro. The settings on record: human. As for the experimental part:
as §2, with “Samples” for “For IC50 and cytotoxicity determination, we used 384 plates with confluent HFF cells. Compounds were serially diluted 3-fold with a starting concentration of 20 µM. Samples”

For a further data set, the system named is T. gondii. More on the design: method as in earlier work. The following applies: 100 µM; cited from earlier work.

Consider `C[C@@H]1CC[C@H]2[C@@H](C)C(=O)O[C@@H]3O[C@@]4(C)CC[C@@H]1[C@]32OO4` [Artemisinin, reference compound], for which the values for the IC50 in data set [1] and in data set [3] were 702 ± 24.7 nM and 10500 nM, respectively. Further, the inhibition at 5 µM in data set [2] was 94%.

In the case of `COC(=O)[C@@]12Oc3cc4c(c(O)c3C(=O)C1=C(O)CC[C@@H]2O)[C@@H]1C=C[C@@]2(C4)C(=O)c3cc(C)cc(O)c3C(O)=C2C1=O` [compound 130144, Xanthoquinodin A1], the half-maximal inhibitory concentration (IC50) was 112 ± 74 nM in data set [1], 250 nM in data set [4], 12900 nM in data set [3] and 12900 ± 1900 nM in “in vitro”.

Consider `COC(=O)[C@]12Oc3cc4c(c(O)c3C(=O)C1=C(O)CC[C@@H]2O)[C@@H]1C=C[C@@]2(C4)C(=O)c3cc(C)cc(O)c3C(O)=C2C1=O` [compound 130147, Xanthoquinodin A2], for which the concentration for half-maximal inhibition (IC50) in data set [1] was 56.4 ± 12.8 nM; in data set [4], 680 nM; in data set [3], 12300 nM; in “in vitro”, 12300 ± 300 nM.

Turning to `CO[C@@H]1[C@H](OC(=O)/C=C/C=C/C=C/C=C/C(=O)O)CC[C@]2(CO2)[C@H]1[C@@]1(C)O[C@@H]1CC=C(C)C` [compound 150046, Fumagillin], the IC50 in data set [1] is 58.8 ± 7.3 nM; in data set [4], 1310 nM; in data set [3] it was over 20000 nM; in “in vitro”, over 60000 nM. In data set [3] (highest concentration tested (60 µM)), the “toxicity to HFFs” value is on record as “lack of toxicity”.

For the compound `CC(C)[C@H]1CC[C@@]2(O)COC(=O)[C@H]2[C@@H]1/C=C(\CO)C(=O)O` [hydroheptelidic acid, reference compound], in the data set on T. gondii, the “inhibition of T. gondii” value was “no activity”.
